Assay results as given in patent US20230200393A1, “SELECTIVE HERBICIDES BASED ON SUBSTITUTED ISOXAZOLIN CARBOXAMIDES AND METCAMIFEN” (Bayer Aktiengesellschaft, priority 2020, published 2023).

Experiments:
ZEAMA Sileno [1] = test: Tank-mix post-emergence crop damage, herbicide with/without safener metcamifen; assay type: in vivo, maize; conditions: for HER effect + SAF / Reduction [Difference] / Reduction [%]: Final; for HER effect: no safener, Final assessment, post-emergence
Description: (§1) Seeds of crops (spring wheat, TRZAS; spring barley, HORVS; maize, ZEAMA) were placed in sandy loam soil in peat pots, covered with soil and cultivated in a greenhouse under good growth conditions. Two to three weeks after sowing, the test plants were treated at the 1 to 3-leaf stage. The herbicide/safener active compound combinations according to the invention, formulated as wettable powders or emulsion concentrates, and, in parallel tests, the correspondingly formulated individual active compounds were sprayed onto the green parts of the plants in various dosages using an amount of water of 300 l/ha (converted).
(§2) The pots were returned under good growing conditions in a glasshouse and a visual assessment of herbicidal effects was made at intervals from 1 to 3 weeks after herbicide application (DAT=days after treatment). Assessment was on a percentage basis in comparison with untreated control plants (0%=no injury, 100%=complete kill).

TRZAS Triso [2] = test: Safener seed treatment, pre-emergence herbicide crop damage; assay type: in vivo, spring wheat; conditions: 21 (Final) DAT; for HER effect: no safener
Description: (§3) For the safener seed treatment, sufficient seeds of the respective crops (spring wheat, TRZAS; spring barley, HORVS; maize, ZEAMA) were weighed into screw top glass bottles approximately twice the volume of the seeds.
(§4) The specified safeners, formulated as wettable powder (WP) were weighed out so that the specified rates (g a.i./kg seed) would be obtained, dissolved in water (1 ml water per 10 g of seeds), and added to the seeds to produce a slurry.
(§5) The bottles were capped and then placed in an overhead shaker (set at medium speed for ca. 60 minutes) so that the seeds were evenly coated with the slurry. The bottles were uncapped and the seeds were either placed on paper and dried for an interval of 3-4 hours prior to sowing, or directly sown. Seeds were placed in sandy loam soil in pots of a diameter of 7-8 cm, and covered with soil.
(§6) Pre-emergence application of the specified herbicides was done subsequently, on two sets of plants:
(§7) a) seed treatment with safener, as described above
(§8) The herbicides were formulated as WP and was sprayed onto the soil surface as an aqueous suspension at an equivalent water application rate of 300 l/ha.
(§9) After application, the test plants were kept in the greenhouse under good growth conditions. At intervals up to 4 weeks after application (=28 days after treatment; DAT), % crop damage observed on the treated plants was scored visually in comparison to control plants that had not received any safener or herbicide treatment.
(§10) Values in the table below are mean values of at least 2 replicates.

ZEAMA Sileno [3] = test: as above; assay type: in vivo, maize; conditions: for HER effect: no safener
Description: as §3, §4, §5, §6, §7, §8, §9, §10

TRZAS Triso [4] = test: Tank-mix post-emergence crop damage, herbicide with/without safener metcamifen; assay type: in vivo, spring wheat; conditions: 21 DAT
Description: as §1, §2

[5] = HER 8 g a.i./ha + metcamifen 100 g a.i./ha
[6] = HER 32 g a.i./ha + metcamifen 50 g a.i./ha
[7] = HER 5 g a.i./ha + metcamifen seed treatment 0.25 g a.i./kg seed
[8] = HER 40 g a.i./ha + metcamifen seed treatment 0.25 g a.i./kg seed, 14 DAT
[9] = HER 40 g a.i./ha + metcamifen seed treatment 0.25 g a.i./kg seed, 26 DAT
[10] = HER 80 g a.i./ha + metcamifen seed treatment 0.25 g a.i./kg seed, 14 DAT
[11] = HER 15 g a.i./ha + metcamifen seed treatment 0.25 g a.i./kg seed
[12] = HER 40 g a.i./ha pre-emergence, 14 DAT
[13] = HER 80 g a.i./ha + metcamifen seed treatment 0.25 g a.i./kg seed, 26 DAT
[14] = HER 8 g a.i./ha + metcamifen 50 g a.i./ha
[15] = HER 32 g a.i./ha + metcamifen 100 g a.i./ha
[16] = HER 0.5 g a.i./ha + metcamifen 50 g a.i./ha
[17] = HER 2 g a.i./ha + metcamifen 50 g a.i./ha

## C=CC1(C(=O)NC2COC(C(=O)OC)C2)CC(c2cc(F)cc(F)c2)=NO1 (mixture of isomers) [Example 1.68]
ZEAMA Sileno [1]; [5]
  HER effect + SAF: 48%
  Reduction [Difference]: 48
ZEAMA Sileno [1]; HER 8 g a.i./ha
  HER effect: 96%
ZEAMA Sileno [1]; [6]
  HER effect + SAF: 67%
  Reduction [%]: 32%
  Reduction [Difference]: 31
ZEAMA Sileno [1]; HER 32 g a.i./ha
  HER effect: 98%
TRZAS Triso [2]; [7]
  HER effect + SAF: 10%
  Reduction [%]: 78%
ZEAMA Sileno [3]; [8]
  HER effect + SAF: 30%
  Reduction [%]: 68%
  Reduction [Difference]: 63
ZEAMA Sileno [3]; [9]
  Reduction [%]: 74%
  Reduction [Difference]: 70
ZEAMA Sileno [3]; HER 40 g a.i./ha pre-emergence, 26 DAT
  HER effect: 95%
ZEAMA Sileno [3]; [10]
  HER effect + SAF: 75%
  Reduction [%]: 23%
  Reduction [Difference]: 22
ZEAMA Sileno [3]; HER 80 g a.i./ha pre-emergence, 14 DAT
  HER effect: 97%

## COC(=O)C1COCC1NC(=O)C1(C)CC(c2cc(F)cc(F)c2)=NO1 (mixture of isomers) [Example 1.93]
TRZAS Triso [2]; [7]
  HER effect + SAF: 5%
  Reduction [%]: 86%
  Reduction [Difference]: 30
TRZAS Triso [2]; HER 5 g a.i./ha pre-emergence
  HER effect: 35%
TRZAS Triso [2]; [11]
  HER effect + SAF: 10%
  Reduction [%]: 85%
  Reduction [Difference]: 55
TRZAS Triso [2]; HER 15 g a.i./ha pre-emergence
  HER effect: 65%

## COCCOC(=O)C1C=CC(NC(=O)C2(C(F)(F)F)CC(c3cc(F)cc(C#N)c3)=NO2)C1 (stereo not drawn) [Example 1.2]
ZEAMA Sileno [3]; [8]
  HER effect + SAF: 20%
  Reduction [%]: 50%
  Reduction [Difference]: 20
ZEAMA Sileno [3]; [12]
  HER effect: 40%

## COCCOC(=O)C1C=CC(NC(=O)C2(C)CC(c3cc(Cl)cc(C#N)c3)=NO2)C1 (stereo not drawn) [Example 1.5]
ZEAMA Sileno [3]; [10]
  HER effect + SAF: 35%
  Reduction [%]: 42%
ZEAMA Sileno [3]; [13]
  HER effect + SAF: 25%
  Reduction [%]: 44%

## CSCCOC(=O)C1C=CC(NC(=O)C2(C(F)(F)F)CC(c3cc(F)cc(F)c3)=NO2)C1 (stereo not drawn) [Example 1.7]
ZEAMA Sileno [3]; [8]
  HER effect + SAF: 55%
  Reduction [%]: 34%
  Reduction [Difference]: 28
ZEAMA Sileno [3]; [9]
  Reduction [%]: 44%
  Reduction [Difference]: 20
ZEAMA Sileno [3]; [12]
  HER effect: 83%

## C=CC1(C(=O)NC2C=CC(C(=O)OC)C2)CC(c2cc(F)cc(F)c2)=NO1 (stereo not drawn) [Example 1.26]
ZEAMA Sileno [1]; [14]
  HER effect + SAF: 22%
  Reduction [%]: 61%
  Reduction [Difference]: 35
ZEAMA Sileno [1]; HER 8 g a.i./ha
  HER effect: 57%
ZEAMA Sileno [1]; [15]
  HER effect + SAF: 35%
  Reduction [%]: 63%
  Reduction [Difference]: 59
ZEAMA Sileno [1]; HER 32 g a.i./ha
  HER effect: 94%
TRZAS Triso [4]; [16]
  HER effect + SAF: 20%
  Reduction [%]: 50%
TRZAS Triso [4]; [17]
  HER effect + SAF: 80%
  Reduction [%]: 11%
  Reduction [Difference]: 10
TRZAS Triso [4]; HER 2 g a.i./ha, no safener
  HER effect: 90%
ZEAMA Sileno [3]; [12]
  HER effect: 25%
ZEAMA Sileno [3]; [10]
  Reduction [%]: 86%
ZEAMA Sileno [3]; [13]
  Reduction [%]: 86%

## C=CC1(C(=O)NC2COC(C(=O)OC)C2)CC(c2cc(F)cc(F)c2)=NO1 (stereo not drawn) [Example 1.69]
ZEAMA Sileno [3]; [8]
  HER effect + SAF: 20%
  Reduction [%]: 79%
  Reduction [Difference]: 75
ZEAMA Sileno [3]; [9]
  Reduction [%]: 67%
  Reduction [Difference]: 60

## C=CC1(C(=O)NC2COC(C(=O)OC)C2)CC(c2cc(F)cc(F)c2)=NO1 (stereo not drawn) [Example 1.70]
ZEAMA Sileno [3]; [8]
  HER effect + SAF: 20%
  Reduction [%]: 75%
  Reduction [Difference]: 60
ZEAMA Sileno [3]; [9]
  HER effect + SAF: 5%
  Reduction [%]: 94%
  Reduction [Difference]: 80
ZEAMA Sileno [3]; [10]
  Reduction [%]: 63%
  Reduction [Difference]: 60
ZEAMA Sileno [3]; [13]
  HER effect + SAF: 25%
  Reduction [%]: 74%
  Reduction [Difference]: 70

## C=CC1(C(=O)NC2C=C(C(=O)OC)OC2)CC(c2cc(C)cc(C)c2)=NO1 (stereo not drawn) [Example 1.90]
ZEAMA Sileno [3]; [13]
  Reduction [%]: 83%
  Reduction [Difference]: 25
ZEAMA Sileno [3]; HER 80 g a.i./ha pre-emergence, 26 DAT
  HER effect: 30%

## COC(=O)C1OCCC1NC(=O)C1(C)CC(c2cc(F)cc(F)c2)=NO1 (stereo not drawn) [Example 1.92]
ZEAMA Sileno [3]; [8]
  Reduction [%]: 87%
  Reduction [Difference]: 65
ZEAMA Sileno [3]; [9]
  HER effect + SAF: 0%
  Reduction [%]: 100%
